Common to all, as to assay: inhibition of tumour cell growth, NCI panel, 48 h
In assay [1] the test system is A498 renal.
The subject of assay [2] is A549 NSCLC.
In assay [3] the test system is ACHN renal.
Assay [4] has as its system EKVX NSCLC.
Assay [5] deals with K-562 leukemia.
For assay [6], the system named is KM12 colon.
Assay [7] concerns LOX IMVI melanoma.
In assay [8] the test system is MOLT-4 leukemia.
Assay [9] deals with NCI/ADR-RES ovarian.
The test system of assay [10] is OVCAR-3 ovarian.
Assay [11] has as its system OVCAR-5 ovarian.
Assay [12] relates to PC-3 prostate.
Assay [13] has as its system SF-268 CNS.
For assay [14], the system named is SNB-75 CNS.
The test system of assay [15] is UACC-257 melanoma.
The test system of assay [16] is UO-31 renal.
Assay [17] has as its system RPMI-8226 leukemia.
For assay [18], the system named is U251 CNS.

Our source for the TGI values is PubChem BioAssay (NCI).

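These data come from cells grown in 96-well plates and exposed to compound for 48 hours at five concentrations. TGI: concentration producing complete growth inhibition.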

`Cc1cc(NS(=O)(=O)c2ccc(NO)cc2)no1`: the TGI was more than 100 µM in assay [1]; more than 100 µM in assay [2]; more than 100 µM in assay [3]; more than 100 µM in assay [4]; 43.7 µM in assay [5]; more than 100 µM in assay [6]. The TGI in [7] is 39.6 µM; in assay [8] it was more than 100 µM; in assay [9] it was more than 100 µM; in assay [10] it was more than 100 µM; in assay [11], more than 100 µM; in assay [12] it was more than 100 µM. In addition, the TGI in assay [13], in assay [14], in assay [15] and in [16] was more than 100 µM throughout.

In the case of `Cc1n[nH]c(=O)n1/N=C/c1ccco1`, the TGI in assay [1], in assay [2], in assay [3], in assay [4], in assay [5] and in assay [6] was more than 100 µM throughout. Moreover, the TGI in assay [8], in [9], in [10], in assay [11], in assay [12] and in assay [17] was more than 100 µM in each case. The TGI in [13], in assay [14], in [18], in [15] and in assay [16] was more than 100 µM in each case.

`N#Cc1c(C#N)c(SSc2c(C#N)c(C#N)c(N)n2-c2cccc3ccccc23)n(-c2cccc3ccccc23)c1N`: the TGI in assay [1] was more than 63.6 µM; in assay [2], 43.7 µM; in [3], 13.1 µM; in [4], 10.1 µM; in [5] it was more than 100 µM; in assay [6], more than 100 µM. Further, the TGI in assay [8] is more than 100 µM; in [9] it was more than 76.8 µM; in assay [11], 49.9 µM; in assay [12] it was 35.5 µM; in assay [17], more than 100 µM; in assay [13], 33.2 µM. The TGI came out at 38.7 µM in assay [14], 40 µM in [18], 37.6 µM in assay [15] and 6.02 µM in assay [16].

With `CCOC(=O)/C=C(/C(=O)OCC)n1ccc(=O)n(Cc2cn(CCCCOC(C)=O)nn2)c1=O`, the TGI in [2], in assay [3], in assay [4], in assay [5], in assay [6] and in [7] was more than 100 µM in each case. The TGI in [8], in assay [9], in assay [10], in assay [11], in assay [12] and in [17] was more than 100 µM in each case. Further, the TGI in assay [13], in assay [14], in [18], in [15] and in assay [16] was more than 100 µM throughout.

As to `Cc1cc(C)c(NS(=O)c2ccc(Cl)cc2)c(C)c1` (stereo unspecified), the TGI in assay [1], in assay [2], in assay [3], in [4], in assay [5] and in assay [6] was more than 100 µM in each case. For the same molecule, the TGI in assay [8], in [9], in assay [10], in assay [11], in assay [12] and in assay [17] was more than 100 µM each time. Further, the TGI in assay [13], in assay [18], in [15] and in assay [16] was more than 100 µM each time.

Regarding `CO[P@@]1(=O)O[C@@H](c2ccccc2)[C@H](O)[C@@]1(O)c1ccccc1`, the TGI in [1], in assay [2], in [3], in assay [4], in [5] and in [6] was more than 100 µM in each case. Moreover, the TGI in assay [7], in assay [8], in assay [9], in [10], in assay [11] and in assay [12] was more than 100 µM each time. For the same molecule, the TGI in assay [13], in [14], in assay [18], in assay [15] and in assay [16] was more than 100 µM in each case.

Take `CCOC(=O)c1ccc(N=C2Sc3nc4ccccc4n3C2=Nc2ccc(C(=O)OCC)cc2)cc1`: the TGI is 81.4 µM in assay [1]; 69.8 µM in assay [2]; 57.2 µM in [3]; more than 100 µM in [4]; more than 100 µM in assay [6]; 81.8 µM in assay [7]. The TGI is more than 100 µM in [8]; 72.7 µM in assay [9]; 53.4 µM in assay [10]; more than 100 µM in assay [11]; more than 100 µM in assay [12]; 84.3 µM in assay [13]. In assay [15], the TGI was more than 100 µM.

Take `O=C1CC(n2ccnc2)c2c(Cl)sc(Cl)c21` (stereo unspecified): the TGI in [2] is more than 64.7 µM; in assay [3] it was 33.2 µM; in [4], 38.7 µM; in assay [5] it was more than 38.1 µM; in [6], 33.9 µM; in assay [7], 19.2 µM. In addition, the TGI in assay [8] is more than 24 µM; in assay [9] it was 71.5 µM; in [10], 30.3 µM; in assay [11], 48.1 µM; in assay [12], 36.7 µM; in assay [17] it was more than 100 µM. The TGI in assay [13] is 59.3 µM; in assay [14], 52 µM; in assay [18], 35.6 µM; in assay [15] it was more than 51.1 µM; in [16], 27 µM.

As for `CC1(C)CC(=O)c2c(-c3ccc(Cl)cc3)c(C#N)c(=S)n(C3OC(CO)C(O)C(O)C3O)c2C1` (stereo unspecified), the TGI is more than 100 µM in assay [1]; more than 100 µM in assay [2]; more than 100 µM in assay [3]; 57.3 µM in [5]; more than 100 µM in assay [6]; 49.4 µM in assay [7]. In addition, the TGI in assay [8] is more than 100 µM; in [9], more than 100 µM; in assay [10], 90.7 µM; in assay [11], more than 100 µM; in assay [12], 52.1 µM; in assay [17] it was more than 100 µM. In addition, the TGI in [13] is more than 100 µM; in [14], 98.4 µM; in assay [18], more than 100 µM; in assay [15], 98.2 µM; in [16], 98.8 µM.
